Measurements: patent publication US12427192B2, “Water soluble adjuvant and composition containing same” (Sumitomo Pharma Co., Ltd., priority 2019, dated 2025)

Columns and labels:
[1] = test system: HLA-A*02:01 transgenic mouse; experiment: Test 15: in vivo adjuvant activity, cocktail vaccine j (hydrogel formulation), IFNγ ELISPOT; settings: added to cocktail vaccine j (hydrogel formulation); 0.4 nmol per body, twice; FIG. 17 and 18
Method: (§1) Evaluation of In Vivo Adjuvant Activity in HLA-A*02:01 Transgenic Mouse
The in vivo adjuvant activity of the compound of Example 1 was evaluated in the following procedure. To a vaccine (hydrogel formulation) comprising Compound of formula 4 prepared in Reference example 8 and Peptide SEQ ID No. 3 prepared in Reference example 3 (hereinafter, referred to as “cocktail vaccine j”) was added the compound prepared in Example 1 to prepare a vaccine. The vaccine was administered to a HLA-A*02:01 transgenic mouse, and the adjuvant activity of the vaccine was evaluated by the method of testing antigen-specific CTL induction.
For example, the above hydrogel formulation was prepared as follows. Compound of formula 4, Peptide SEQ ID No. 3, and polyoxyethylene(196)polyoxypropylene(67) glycol were mixed with pH 2.5 buffer (10 mM tartaric acid) to adjust each concentration to 1.5 mg/mL, 1.125 mg/mL, and 200 mg/mL, respectively. The mixture was […] to give a hydrogel formulation, cocktail vaccine j. The amount of the preparation was adjusted as appropriate.
Cocktail vaccine j was injected to mice intradermally at the tail base area in an amount for administering 300 μg of Compound of formula 4 per body and 225 μg of Peptide SEQ ID No. 3 per body. […] Then, after removal of the supernatant from the wells, stained spots on the ELISPOT plate were counted.

[2] = test system: MCA-A24/Kb-WT1 tumor cells; experiment: Test 5: enhancement of in vivo suppressive effect of vaccine on tumor growth; design: species or system mouse; settings: 27 days after tumor transplantation; vaccine 7 days before and 7 days after transplantation; compared with vehicle (group a); six mice per group; 100 ng Example 1 per body in group c; FIG. 2
Method: Effect for Enhancing the In Vivo Suppressive Effect of Vaccine for Growth of Tumor Vaccine
A suspension of 3-methylcholanthrene in corn oil was administered to a HLA-A*24:02 transgenic mouse intradermally at the ventral region. From the tumor generated at the administration site, HLA-A*2402/Kb-expressing tumor cells were obtained. Cell lines established by stably expressing WT1 antigen peptide (SEQ ID No. 2) in the cells (herein, also referred to as MCA-A24/Kb-WT1 tumor cells) were suspended in Hanks' Balanced Salt Solution and intradermally transplanted to the ventral region of HLA-A*24:02 transgenic mouse (5×10^5 cells per mouse). The mice made to receive a vehicle (Group a), a vaccine (Group b), or a vaccine containing the compound prepared in Example 1 (Group c) were classified. Six mice per group were used. Seven days before the tumor transplantation and seven days after the tumor transplantation, for the mice of Group a, a composition comprising water for injection was emulsified with an equal volume of Montanide ISA 51 VG and the emulsion was administered intradermally at the tail base area (0.1 mL per administration per mouse). […] The tumor diameter was measured 27 days after the tumor transplantation and the tumor volume was calculated.

[3] = test system: HLA-A*02:01 transgenic mouse; experiment: Test 11: in vivo adjuvant activity, cocktail vaccine f (emulsified composition 1), IFNγ ELISPOT; settings: added to cocktail vaccine f (emulsified composition 1); 0.04 nmol or 0.4 nmol per body, twice; FIG. 10 and 11
Method: as §1
The in vivo adjuvant activity of the compound of Example 1 was evaluated in the following procedure. To a cocktail vaccine (emulsified composition 1) comprising Compound of formula 4 prepared in Reference example 8 and Peptide SEQ ID No. 3 prepared in Reference example 3 (hereinafter, referred to as “cocktail vaccine f”) was added the compound prepared in Example 1 to prepare a vaccine. The vaccine was administered to a HLA-A*02:01 transgenic mouse, and the adjuvant activity of the vaccine was evaluated by the method of testing antigen-specific CTL induction.
For example, the above emulsified composition 1 was prepared as follows. 95.8% (w/w) of soybean oil, 3% (w/w) of PEG-30 dipolyhydroxy stearate, and 1.2% (w/w) of polysorbate 80 were mixed to prepare an oil-phase mixture. The amount of the preparation was adjusted as appropriate. Compound of formula 4 and Peptide SEQ ID No. 3 were mixed with pH 2.5 buffer (10 mM tartaric acid, 10% trehalose) to adjust each concentration to 3 mg/mL and 2.25 mg/mL, respectively. The prepared peptide dilution was mixed with an equal volume of the oil-phase mixture to give an emulsified product, cocktail vaccine f. […] Then, after removal of the supernatant from the wells, stained spots on the ELISPOT plate were counted.

SMILES: CCCCCNc1nc(N)nc(C)c1Cc1ccc(CN(C)CCOCCOCCOCCOCCO)cc1OC [Example 1, 1-(4-{[2-amino-4-methyl-6-(pentylamino)pyrimidin-5-yl]methyl}-3-methoxyphenyl)-2-methyl-5,8,11,14-tetraoxa-2-azahexadecan-16-ol·trifluoroacetate]
- CTL counts responsive to Peptide SEQ ID No. 1 or SEQ ID No. 4 compared with adding no compound [1]: more
- growth of tumor cells (average tumor volume) [2]: more potently suppressed the growth of tumor cells
- CTL counts responsive to Peptide SEQ ID No. 1 or SEQ ID No. 4 compared with adding no compound [3]: more
